Assay results reported in patent US20260256779A1, “PYRIDAZIN-3-CARBOXAMIDE COMPOUND AS TYK2 INHIBITOR” (Guangzhou Fermion Technology Co., Ltd., priority 2022, published 2026).

Columns and labels:
[1] = target: T1, TYK2 JH2 pseudokinase (Homo sapiens, UniProt P29597); assay: TYK2 JH2 in vitro enzyme binding assay (TR-FRET); details: 60 min at room temperature
T1 construct: 5 μL of 3×TYK2 JH2 kinase (Bioduro); purchased Bioduro
Description: Purpose: The purpose of this test example was to use a fluorescence resonance energy transfer (TR-FRET) method to test the binding effect of the compound on a TYK2 JH2 pseudokinase, and then evaluate the affinity of the compound for TYK2 JH2.
DMSO-dissolved compounds were used to prepare 10 mM stock solutions, then 200× compounds having different gradient concentrations were prepared in a compound dilution plate, and transferred to an Echo plate. 75 nL of the compounds were transferred from the Echo plate to a 384-well assay plate using an Echo instrument, and 5 μL of 3×TYK2 JH2 kinase (Bioduro), 5 μL of 3× Tb antibody (Cisbio) and 5 μL of 3×TRACER (Bioduro) were added to the 384-well assay plate, centrifuged for 30 seconds, and incubated at room temperature for 60 minutes. A 495 nm/520 nm fluorescence signal ratio was read by an Envision microplate reader (PerkinElmer), and data was analyzed using XL-Fit software to calculate the IC50 of the compound.

[2] = tested on: IL-2-induced CD3+ pSTAT5 (JAK1/3) in hPBMC; assay: IL-2-induced STAT5 phosphorylation (JAK1/3) in CD3+ cell subpopulations in human PBMC, flow cytometry; assay type: cell-based; details: CD3+ cells, IL-2 stimulation
Description: Purpose: The purpose of this test example was to test the inhibitory effect of the compound on IL-2-induced STAT5 phosphorylation using protein phosphorylation flow cytometric analysis technology.
Human PBMC cells were pre-incubated with the compounds, STAT5 was induced to phosphorylate under appropriate stimulation conditions, and corresponding cell subpopulations and targets were stained. Flow cytometry was used to read cell data and analyze the strength of phosphorylated antibody signals under different compound concentrations. PBMCs were resuspended and dispensed into a 96-well plate, 62.5 μL/well. 3.5 μL of 20× compound working solutions were added and incubated at 37° C. for 30 minutes. 5 μL of PE Mouse Anti-Human CD3 (BD) was added and incubated at 37° C. in the dark for 30 minutes. 4 μL of 20× IL-2 (R&D) was added to each well and incubated at 37° C. in the dark for 20 minutes. All cells in the 96-well plate were transferred to a deep-well plate, 400 μL of a fixation working solution (Biolegend) was added to each well, and incubated at room temperature in the dark for 20 minutes. The cells were washed twice with PBS, and 400 μL of Perm Buffer III (BD) was added and incubated at 4° C. in the dark for 40 minutes. The cells were washed twice with PBS, and 100 μL of a STAT5 pY694 antibody working solution (BD) was added and incubated at room temperature for 40 minutes. After washing once with PBS, the cells were resuspended in 200 μL of a staining buffer and transferred to a sample plate. The antibody fluorescence intensity was analyzed using FlowJo software, and the IC50 of the compound was calculated using XL-Fit software.

[3] = Pharmacokinetic evaluation by intravenous injection or oral gavage in mice; assay type: in vivo; details: ICR mice; for AUC(0-t) / Cmax / Tmax / half-life / clearance / Vd: mouse, plasma; for Vd: read-out: Vz
Description: The inventors evaluated the pharmacokinetic properties of the compound of the present invention in mice.
The compound of the present invention was administered to the test animals in the form of 5% DMA+5% Solutol+90% saline or 5% ethanol+5% TPGS+90% PEG300 solvent. The animals were fasted for 12 hours before administration and had free access to water. For the intravenous administration group, the dose was 1 mg/kg. The drug was administered by intragastric administration at a dose of 10 mg/kg. After the drug administration, blood was intravenously drawn from the animals at the following time points (blood volume was approximately 0.3 mL): 0.083, 0.25, 0.5, 1.0, 2.0, 4.0, 8.0 and 24 h. EDTA-K2 was pre-added to blood collection tubes as an anticoagulant, and the blood samples were centrifuged at 6800 g for 6 min to collect plasma, which was then stored at −80° C.
Sample preparation for LC-MS/MS assay: 15 μL of plasma samples was used for protein precipitation with 300 μL of methanol containing 100 ng/mL IS (IS was tolbutamide). The mixture was vortexed for 1 min and then centrifuged at 18000 g for 10 min. 300 μL of the supernatant was transferred to a 96-well plate. 2 μL of the supernatant was subjected to LC-MS/MS analysis.

[4] = intragastric administration, 10 mg/kg
[5] = po, intragastric administration, 10 mg/kg
[6] = intravenous administration, 1 mg/kg

T1 sequence (P29597 589-875 limits assumed): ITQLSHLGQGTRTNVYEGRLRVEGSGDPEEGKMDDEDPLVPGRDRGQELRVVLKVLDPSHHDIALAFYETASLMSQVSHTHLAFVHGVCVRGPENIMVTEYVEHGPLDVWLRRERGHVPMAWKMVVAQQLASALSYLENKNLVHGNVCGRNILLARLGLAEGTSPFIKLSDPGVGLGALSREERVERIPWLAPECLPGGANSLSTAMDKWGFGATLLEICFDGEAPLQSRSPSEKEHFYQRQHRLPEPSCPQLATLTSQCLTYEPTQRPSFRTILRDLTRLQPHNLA

In the case of `CCONC(=O)c1nnc(NC(=O)C2CC2)cc1Nc1cccc(-c2ncn(C3CC3)n2)c1OC` [Compound 7, 6-(Cyclopropylcarboxamido)-4-((3-(1-cyclopropyl-1H-1,2,4-triazol-3-yl)-2-methoxyphenyl)amino)-N-ethoxypyridazine-3-carboxamide], the IC50 [1] is reported as 0.17 nM, the IC50 [2] is reported as greater than 30000 nM and the F [3, 4] is reported as 29.09%. For the same compound, the AUC(0-t) [3, 5] was 7850 ng·h/mL, the Cmax [3, 5] was 3460 ng/mL and the Tmax [3, 5] was 0.83 h. For the same compound, the half-life [3, 5] was 3.75 h, the AUC(0-t) [3, 6] was 2700 ng·h/mL and the Cmax [3, 6] was 3620 ng/mL. The Tmax [3, 6] was 0.08 h, the clearance [3, 6] was 6.13 mL/min/kg and the half-life [3, 6] was 1.51 h. For the same compound, the Vd [3, 6] was 0.81 L/kg.

`[2H]C([2H])([2H])n1cnc(-c2cccc(Nc3cc(NC(=O)C4CC4)nnc3C(=O)NOCC)c2OC)n1` [Compound 5, 6-(Cyclopropylcarboxamido)-N-ethoxy-4-((2-methoxy-3-(1-(methyl-d3)-1H-1,2,4-triazol-3-yl)phenyl)amino)pyridazine-3-carboxamide] gave an IC50 [1] of 0.26 nM.

In the case of `CONC(=O)c1nnc(NC(=O)C2CC2)cc1Nc1cccc(-c2ncn(C)n2)c1OC` [Compound 1, 6-(Cyclopropylcarboxamido)-N-methoxy-4-((2-methoxy-3-(1-methyl-1H-1,2,4-triazol-3-yl)phenyl)amino)pyridazine-3-carboxamide], the IC50 [1] is reported as 0.17 nM.

In the case of `[2H]C([2H])([2H])C([2H])([2H])ONC(=O)c1nnc(NC(=O)C2CC2)cc1Nc1cccc(-c2ncn(C)n2)c1OC` [Compound 15, 6-(Cyclopropylcarboxamido)-N-(ethoxy-d5)-4-((2-methoxy-3-(1-methyl-1H-1,2,4-triazol-3-yl)phenyl)amino)pyridazine-3-carboxamide], the IC50 [1] is reported as 0.14 nM.

`[2H]C([2H])([2H])ONC(=O)c1nnc(NC(=O)C2CC2)cc1Nc1cccc(-c2ncn(C3CC3)n2)c1OC` [Compound 16, 6-(Cyclopropanamido)-4-((3-(1-cyclopropyl-1H-1,2,4-triazol-3-yl)-2-methoxyphenyl)amino)-N-(methoxy-d3)pyridazine-3-carboxamide] showed an IC50 [1] of 0.29 nM.

`[2H]C([2H])([2H])ONC(=O)c1nnc(NC(=O)C2CC2)cc1Nc1cccc(-c2ncn(C)n2)c1OC` [Compound 14, 6-(Cyclopropylcarboxamido)-N-(methoxy-d3)-4-((2-methoxy-3-(1-methyl-1H-1,2,4-triazol-3-yl)phenyl)amino)pyridazine-3-carboxamide] gave an IC50 [1] of 0.27 nM.

`CCONC(=O)c1nnc(NC(=O)C2CC2)cc1Nc1cc(F)cc(-c2ncn(C)n2)c1OC` [Compound 4, 6-(Cyclopropylcarboxamido)-N-ethoxy-4-((5-fluoro-2-methoxy-3-(1-methyl-1H-1,2,4-triazol-3-yl)phenyl)amino)pyridazine-3-carboxamide] showed an IC50 [1] of 0.2 nM.

Compound `[2H]C([2H])([2H])Oc1c(Nc2cc(NC(=O)C3CC3)nnc2C(=O)NOCC)cccc1-c1ncn(C2CC2)n1` [Compound 9, 6-(Cyclopropylcarboxamido)-4-((3-(1-cyclopropyl-1H-1,2,4-triazol-3-yl)-2-(methoxy-d3)phenyl)amino)-N-ethoxypyridazine-3-carboxamide] has an IC50 [1] of 0.22 nM, an IC50 [2] greater than 30000 nM and an F [3, 4] of 72.48%. It also gave an AUC(0-t) [3, 5] of 20100 ng·h/mL, a Cmax [3, 5] of 9220 ng/mL and a Tmax [3, 5] of 0.67 h. The half-life [3, 5] was 4.64 h, the AUC(0-t) [3, 6] was 2780 ng·h/mL and the Cmax [3, 6] was 3730 ng/mL. The Tmax [3, 6] was 0.08 h, the clearance [3, 6] was 6.09 mL/min/kg and the half-life [3, 6] was 4.3 h. For the same compound, the Vd [3, 6] was 1.8 L/kg.

`[2H]C([2H])([2H])n1cnc(-c2cc(F)cc(Nc3cc(NC(=O)C4CC4)nnc3C(=O)NOCC)c2OC)n1` [Compound 6, 6-(Cyclopropylcarboxamido)-N-ethoxy-4-((5-fluoro-2-methoxy-3-(1-(methyl-d3)-1H-1,2,4-triazol-3-yl)phenyl)amino)pyridazine-3-carboxamide] showed an IC50 [1] of 0.3 nM.

In the case of BMS-986165 [reference compound], the IC50 [2] is reported as 409 nM.

Work on `[2H]C([2H])([2H])C([2H])([2H])ONC(=O)c1nnc(NC(=O)C2CC2)cc1Nc1cccc(-c2ncn(C3CC3)n2)c1OC` [Compound 17, 6-(Cyclopropylcarboxamido)-4-((3-(1-cyclopropyl-1H-1,2,4-triazol-3-yl)-2-methoxyphenyl)amino)-N-(ethoxy-d5)pyridazine-3-carboxamide] yielded an IC50 [1] of 0.19 nM, an IC50 [2] greater than 30000 nM and an F [3, 4] of 94.13%. The AUC(0-t) [3, 5] was 17500 ng·h/mL, the Cmax [3, 5] was 5640 ng/mL and the Tmax [3, 5] was 0.67 h. For the same compound, the half-life [3, 5] was 5.03 h, the AUC(0-t) [3, 6] was 1860 ng·h/mL and the Cmax [3, 6] was 3400 ng/mL. It also gave a Tmax [3, 6] of 0.08 h, a clearance [3, 6] of 9.13 mL/min/kg and a half-life [3, 6] of 3.61 h. The Vd [3, 6] was 2.77 L/kg.

Compound `CONC(=O)c1nnc(Nc2cccc(C#N)n2)cc1Nc1cccc(-c2ncn(C)n2)c1OC` [Compound 2, 6-((6-cyanopyridin-2-yl)amino)-N-methoxy-4-((2-methoxy-3-(1-methyl-1H-1,2,4-triazol-3-yl)phenyl)amino)pyridazine-3-carboxamide] has an IC50 [1] of 0.16 nM.

Compound `CCONC(=O)c1nnc(NC(=O)C2CC2)cc1Nc1cccc(-c2ncn(C)n2)c1OC` [Compound 3, 6-(Cyclopropylcarboxamido)-N-ethoxy-4-((2-methoxy-3-(1-methyl-1H-1,2,4-triazol-3-yl)phenyl)amino)pyridazine-3-carboxamide] has an IC50 [1] of 0.13 nM.

For `CCONC(=O)c1nnc(NC(=O)C2CC2)cc1Nc1cc(F)cc(-c2ncn(C3CC3)n2)c1OC` [Compound 8, 6-(Cyclopropylcarboxamido)-4-((3-(1-cyclopropyl-1H-1,2,4-triazol-3-yl)-5-fluoro-2-methoxyphenyl)amino)-N-ethoxypyridazine-3-carboxamide], the IC50 [1] was 0.33 nM.
